Source: US20200063104A1, “EXPANSION OF HPSC-DERIVED GRANULOCYTIC AND LYMPHOID PROGENITORS WITH UM171” (Wisconsin Alumni Research Foundation, priority 2018, published 2020)

Experiments:
[1] = test system: hPSCs (NK cell production); settings: 28-day period, prior studies; cited from earlier work
[2] = test system: hPSC-derived HPs (NK cell production); assay: NK cell differentiation of hPSC-derived HPs on OP9-DLL4; format: cell-based, human
Text: To assess the effect of UM171 on NK cell differentiation, we collected HPs from hPSC cultures on day 9 of differentiation, and cultured them on OP9-DLL4, with or without UM171, as shown in FIG. 5A. After 14 days, these cultures generated CD56^+ NK cells that expressed CD94 and CD16, markers of mature NK cells. Although UM171 had no effect on the percentages of NK cells or their phenotype, the absolute numbers of NK cells generated with UM171 were approximately 10-fold higher as compare to DMSO controls (FIG. 5B-D). […] Similar findings were obtained with HPs generated from H9 hESCs and the IISH2i-BM9 iPSC line that was derived from bone marrow mononuclear cells (FIG. 9).
NK differentiation of hematopoietic progenitor cells was performed in α-MEM (Gibco), supplemented with 20% FBS (HyClone), on mouse OP9-DLL4 expressing feeder layer, in two stages. In stage 1, hematopoietic progenitor cells were cultured for 7 days on OP9-DLL4, with 100 ng/ml FLT3L, 40 ng/ml SCF, and 5 ng/ml IL-7 (Peprotech), and 35 nM UM171 or equivalent volume DMSO. Cells were then transferred to fresh α-MEM media, supplemented with 10 ng/ml Il-2 and 5 ng/ml IL-15 (Peprotech), and with or without UM171 treatment. Media was topped up with one volume fresh media, every 3-4 days, and cultures were transferred to new OP9-DLL4 cells, every 7 days. After 14 to 21 days, cells were harvested for flow cytometry and other analyses. OP9-DLL4 were used at 75-80% confluency.

CD34+CD235+CD41a+ cells = assay: RNAseq analysis of CD34+CD235+CD41a+ cells expanded in HSC expansion conditions; format: cell-based, human
Protocol: To analyze changes in molecular profile induced by UM171, we isolated CD34^+CD235^+CD41a^+ cells on day 9 of differentiation, cultured them in HSC expansion conditions with UM171 or DMSO for 16 hours and 5 days, and then performed RNAseq analysis of expanded cells.
Total RNA was isolated using RNeasy Micro Kit (Qiagen) and subjected to DNase digestion, according to the manufacturer's protocol. Isolated RNAs were used for either quantitative RT-PCR or RNA sequencing. RNA purity and integrity was evaluated by capillary electrophoresis on the Bioanalyzer 2100 (Agilent Technologies, Santa Clara, Calif.). […] Final sample libraries were quantitated with the Life Technologies Qubit fluorometer and sequenced on the Illumina HiSeq 3000 (SY-401-3001). […] Following quality assessment and filtering for adapter molecules and other sequencing artifacts, the sequencing reads were aligned to transcript sequences corresponding to hg19 human genome annotation. Bowtie v 1.1.2 was used allowing two mismatches in a 25 bp seed and excluding reads with more than 200 alignments^25. RSEM v 1.3.0 was used to estimate isoform or gene relative expression levels in units of “transcripts per million” (tpm), as well as posterior mean estimate of the “expected counts” (the non-normalized absolute number of reads assigned by RSEM to each isoform/gene)^26,27. […]

[3] = test system: CD34+CD43+ hPSC-derived HPs; assay: Proliferation and cell cycle (BrdU assay, Ki67 staining) in HP expansion cultures; format: cell-based, human
Protocol: (§1) For apoptosis detection, cells were stained with CD34-FITC, CD45-BV421, and CD43-APC (BD Pharmingen), along with PI and Annexin V-PE (BD Pharmingen), and analyzed by flow cytometry. To assess proliferation of hematopoietic progenitors, using cell proliferation antigen Ki-67, cells were incubated with CD34-PE, CD43-BV421 (BD Pharmingen), and Ghost violet 540 cell viability dye (TONBO Biosciences). Cells were then fixed and permeabilized with 70% ethanol, and stained with Ki67-APC (Miltenyi Biotech), according to the manufacturer protocol, and analyzed by flow cytometry. Cell cycle analysis of total hematopoietic progenitors was carried out using the FITC BrdU flow kit (BD Pharmingen), following manufacturer recommendations. On day four of HP expansion in HSC or lymphoid expansion conditions and on day 3 of NK differentiation cells were labelled with BrdU. After 24 hours, samples were collected and incubated with CD34-PE, CD43-BV421 (BD Pharmingen), and CD45-APC (Miltenyi Biotech); CD34-PE or 34 PerCP, CD45-BV421 (BD Pharmingen), and CD41a-APC (Miltenyi Biotech); CD45-BV421, CD7-PE, and CD34-APC (BD Pharmingen); or CD45-BV421 and CD56-APC (BD Pharmingen), and then counterstained with Ghost violet 540 cell viability dye (TONBO Biosciences). This was followed by fixation, permeabilization, and a 1 hour incubation with DNase at 37° C., to expose incorporated BrdU. After washing, cells were stained first with anti BrdU-FITC, followed by 7AAD, and flow cytometry was performed. CD34^+CD43^+CD45^+ and CD34^+CD43^+CD45^+CD41a^+ hematopoietic progenitors, CD34^+CD45^+CD7^+, lymphoid progenitors, or CD45^+CD56^+ NK cells were then analyzed for cell cycle kinetics and proliferation, through BrdU incorporation.

[4] = test system: hPSC-derived HPs (CFC potential); assay: Methylcellulose colony forming assay of expanded HPs; format: cell-based, human
Protocol: Hematopoietic colony forming potential was assessed by combining cells of interest with 1.5 ml serum containing H4436 Methocult (Stem Cell Technologies). Cell suspensions were then transferred to 35-mm dishes and cultured for 12-14 days at 37° C. Hematopoietic colonies were scored according to cellular morphology, and CFC numbers were normalized to the number of cells plated (CFCs/10^4) cells.

[5] = test system: CD34+CD45+CD7+ progenitors; assay: BrdU cell cycle analysis in NK differentiation cultures; format: cell-based, human; settings: lymphoid stage of NK differentiation
Protocol: as §1, with “After 24 hours, samples were collected and incubated with CD34-PE, CD43-BV421 (BD Pharmingen), and CD45-APC (Miltenyi Biotech); CD34-PE or 34 PerCP, CD45-BV421 (BD Pharmingen), and CD41a-APC (Miltenyi Biotech); CD45-BV421, CD7-PE, and CD34-APC (BD Pharmingen); or CD45-BV421 and CD56-APC (BD Pharmingen), and then counterstained with Ghost violet 540 cell viability dye (TONBO Biosciences). This was followed by fixation, permeabilization, and a 1 hour incubation with DNase at 37° C., to expose incorporated BrdU. After washing, cells were stained first with anti BrdU-FITC, followed by 7AAD, and flow cytometry was performed.” left out

[6] = test system: CD34+CD43+ hPSC-derived HPs; assay: Expansion of hPSC-derived hematopoietic progenitors in HSC expansion conditions (flow cytometry); format: cell-based, human
Text: To understand the effect of UM171 on hPSC-derived HPs and provide mechanistic insight on its action, we performed hematopoietic differentiation of H1 hESCs in defined feeder- and serum-free defined conditions for 9 days to generate HPs^10. We then cultured the cells in SFEM medium supplemented with cytokines that support expansion of HSCs (TPO, SCF, FLT3L, IL3 and IL6), and with UM171 or DMSO (negative control) (FIG. 1A). […] Overall, cultures with UM171 generated up to 10-fold higher numbers of CD34^+CD43^+CD45^+ HPs, as compared to control cultures.
Hematopoietic progenitors from Day 9 differentiation cultures were expanded in StemSpan™-SFEM (Stem Cell Technologies), supplemented with 35 nM UM171 (Xcess Biosciences), or equivalent volume of DMSO, and 100 ng/ml TPO, 100 ng/ml SCF, 100 ng/ml FLT3L, 50 ng/ml IL-6, and 10 ng/ml IL-3. Expansion cultures were supplemented with fresh StemSpan™-SFEM (Stem Cell Technologies) media with the same cytokine concentrations, every 3 days. Cells were plated at up to 150,000 cells/ml. At day 5 or indicated time points, cells were collected for flow cytometric (FCM) analysis and CFU assay. […]

[7] = test system: CD34+CD43+ hPSC-derived HPs; assay: Apoptosis by annexin V assay in HP expansion cultures; format: cell-based, human; settings: 5 days of expansion, UM171 vs DMSO
Protocol: as §1, with “After 24 hours, samples were collected and incubated with CD34-PE, CD43-BV421 (BD Pharmingen), and CD45-APC (Miltenyi Biotech); CD34-PE or 34 PerCP, CD45-BV421 (BD Pharmingen), and CD41a-APC (Miltenyi Biotech); CD45-BV421, CD7-PE, and CD34-APC (BD Pharmingen); or CD45-BV421 and CD56-APC (BD Pharmingen), and then counterstained with Ghost violet 540 cell viability dye (TONBO Biosciences). This was followed by fixation, permeabilization, and a 1 hour incubation with DNase at 37° C., to expose incorporated BrdU. After washing, cells were stained first with anti BrdU-FITC, followed by 7AAD, and flow cytometry was performed.” left out

[8] = 5 days of expansion, UM171 vs DMSO

Row | SMILES | fold increase in NK cell output [1] | fold higher absolute numbers of NK cells as compared to DMSO controls ([2]; 35 nM UM171, after 14 days on OP9-DLL4) | stage of NK differentiation at which addition has an effect ([2]; added during first 7 or final 7-14 days) | percentages of NK cells or their phenotype ([2]; after 14 days on OP9-DLL4, UM171 vs DMSO) | fold increase in NK cell output ([2]; lymphoid cultures on OP9-DLL4 with SCF, FLT3L, IL7, 14-day period) | fold increase in NK and T cell output ([2]; lymphoid cultures on OP9-DLL4 with SCF, Flt-3, IL7) | expression of aryl-hydrocarbon receptor target genes (CD34+CD235+CD41a+ cells; UM171 vs DMSO, 16 hours and 5 days) | AHR and AHRR expression (CD34+CD235+CD41a+ cells; hPSC-derived HPs) | cell cycle distribution of HPs [3, 8] | proliferation of HPs by BrdU assay and Ki67 staining [3, 8] | proportions of CD41a(lo) and CD41a(hi) cells within BrdU+ fraction ([3]; UM171 expansion cultures) | fold higher frequency of proliferating CD41a(lo) HPs as compared to DMSO control ([3]; within BrdU+ fraction, CD34+CD45+ gated, 5 days of expansion) | effect on CFC potential of expanded cells ([4]; HPs expanded 5 and 7 days with UM171 vs DMSO) | share of G-CFCs in the CD34+CD41a(lo)CD45+ progenitor population ([4]; UM171 cultures with HSC expansion cytokines) | proportion of proliferating CD34+CD45+CD7+ progenitors [5] | fold higher numbers of CD34+CD43+CD45+ HPs as compared to control cultures ([6]; 35 nM UM171 vs DMSO, H1 hESC-derived day 9 HPs, SFEM with TPO, SCF, FLT3L, IL3, IL6) | CD201 expression in CD34+CD45+ HPs ([6]; HSC expansion conditions, 35 nM UM171) | number of apoptotic, especially late apoptotic (AnnexinV+PI+) cells [7] | number of viable cells [7]
1 | CC(C)n1cnc2c(NCCc3ccc(O)cc3)nc(-c3csc4ccccc34)nc21 [SR1] | up to 2 fold |  |  |  |  |  |  |  |  |  |  |  |  |  |  |  |  |  | 
2 | Cn1nnc(-c2ccc3c(c2)[nH]c2nc(Cc4ccccc4)nc(NC4CCC(N)CC4)c23)n1 (stereo not shown) [UM171] |  | approximately 10 fold | only when added during the first 7 days | no effect | up to 10 fold | up to 10 fold | did not affect | minimal effect | predominantly increases the proportion of HPs in the early S phase | increased proliferation | approximately equal proportions | up to 7 fold | most dramatic effect on G-CFCs | > 50% | increases the proportion of proliferating | up to 10 fold | induction of CD201 expression | decreased number of apoptotic | increased number of viable cells
